According to the supplement of paper PMC11208160:

Experiment: recombinant UMI read abundance after kanamycin selection (control-corrected) (log10(CPM+1)); higher = more efficient recombination; extreme values may be limits of the assay; sequences stand for … in AGTGCAGAGAAAATCGGCCAGTTTTCTCTGCCTGCAGTCCGCATGCCGTGGGACCCCTTGGGTTCTAACCTGTTGCCTAGATTTATGCAGCGGACTGCCTTTCTCCCAAAGTGATAAACCGG…AGGTTGGTTTCACT; site = the 11-nt donor
Outline: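 Sequenced counts of recombinant UMIs were turned into CPM, averaged across replicates and scaled with control-derived factors. The reported figure is log10(CPM+1). Those UMIs, each 12 nt long, tagged donor and donor-binding-loop pairs on a plasmid with a promoterless kanamycin gene, screened as a pool in Escherichia coli with IPTG (0.07 mM) plus kanamycin or without selection.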
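Note: IS621 bridge recombinase in Escherichia coli cells against a fixed T5 target plasmid.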

Sequence | recombinant UMI read abundance (log10)
CGGAATCCATGGACCGGTTTTCCCGGTAATCCGTATTTGTT (site CCGAAACCTAA) | 0.0076
CGGAATCCATGGACCGGTTTTCCCGGTAATCCGTATTTGTT (site CCGAATCCTAA) | 0.00308
CGGAATCCATGGACCGGTTTTCCCGGTAATCCGTATTTGTT (site CCGAATCCTAG) | 0
CGGAATCCATGGACCGGTTTTCCCGGTAATCCGTATTTGTT (site CCGAATCCTTA) | 0
CGGAATCCATGGACCGGTTTTCCCGGTAATCCGTATTTGTT (site CCGAATTCTAA) | 0
CGGAATCCATGGACCGGTTTTCCCGGTAATCCGTATTTGTT (site CCGATTCCTAA) | 0.00402
CGGAATCCATGGACCGGTTTTCCCGGTAATCCGTATTTGTT (site CCGGATCCTAA) | 0
CGGAATCCATGGACCGGTTTTCCCGGTAATCCGTATTTGTT (site CGAAAACCTAA) | 0
CGGAATCCATGGACCGGTTTTCCCGGTAATCCGTATTTGTT (site CGAAATCCTAA) | 0
CGGAATCCATGGACCGGTTTTCCCGGTAATCCGTATTTGTT (site CGAAATCCTAG) | 0
CGGAATCCATGGACCGGTTTTCCCGGTAATCCGTATTTGTT (site CGAAATCCTTA) | 0.014
CGGAATCCATGGACCGGTTTTCCCGGTAATCCGTATTTGTT (site CGAAATTCTAA) | 0
CGGAATCCATGGACCGGTTTTCCCGGTAATCCGTATTTGTT (site CGAATTCCTAA) | 0
CGGAATCCATGGACCGGTTTTCCCGGTAATCCGTATTTGTT (site CGAGATCCTAA) | 0
CGGAATCCATGGACCGGTTTTCCCGGTAATCCGTATTTGTT (site CGCAACCCTAA) | 0.00816
CGGAATCCATGGACCGGTTTTCCCGGTAATCCGTATTTGTT (site CGCAATCCTAA) | 0.00384
CGGAATCCATGGACCGGTTTTCCCGGTAATCCGTATTTGTT (site CGCAATCCTAC) | 0
CGGAATCCATGGACCGGTTTTCCCGGTAATCCGTATTTGTT (site CGCAATCCTCA) | 0.00634
CGGAATCCATGGACCGGTTTTCCCGGTAATCCGTATTTGTT (site CGCAATGCTAA) | 0.00802

Sequence | recombinant UMI read abundance (log10)
CGGAATCCATGGACCGGTTTTCCCGGTAATCCGTATTTGTT (site CGCACTCCTAA) | 0.0157
CGGAATCCATGGACCGGTTTTCCCGGTAATCCGTATTTGTT (site CGCCATCCTAA) | 0
CGGAATCCATGGACCGGTTTTCCCGGTAATCCGTATTTGTT (site CGGAAACCTAA) | 1.09
CGGAATCCATGGACCGGTTTTCCCGGTAATCCGTATTTGTT (site CGGAAACCTAG) | 0.112
CGGAATCCATGGACCGGTTTTCCCGGTAATCCGTATTTGTT (site CGGAAACCTTA) | 0
CGGAATCCATGGACCGGTTTTCCCGGTAATCCGTATTTGTT (site CGGAAATCTAA) | 0
CGGAATCCATGGACCGGTTTTCCCGGTAATCCGTATTTGTT (site CGGAACCCTAA) | 0.157
CGGAATCCATGGACCGGTTTTCCCGGTAATCCGTATTTGTT (site CGGAACCCTAC) | 0.00563
CGGAATCCATGGACCGGTTTTCCCGGTAATCCGTATTTGTT (site CGGAACCCTCA) | 0.0146
CGGAATCCATGGACCGGTTTTCCCGGTAATCCGTATTTGTT (site CGGAACGCTAA) | 0.00389
CGGAATCCATGGACCGGTTTTCCCGGTAATCCGTATTTGTT (site CGGAAGACTAA) | 0
CGGAATCCATGGACCGGTTTTCCCGGTAATCCGTATTTGTT (site CGGAAGCCTAA) | 0.0104
CGGAATCCATGGACCGGTTTTCCCGGTAATCCGTATTTGTT (site CGGAAGCCTAT) | 0.00319
CGGAATCCATGGACCGGTTTTCCCGGTAATCCGTATTTGTT (site CGGAAGCCTGA) | 0
CGGAATCCATGGACCGGTTTTCCCGGTAATCCGTATTTGTT (site CGGAATACTAA) | 0
CGGAATCCATGGACCGGTTTTCCCGGTAATCCGTATTTGTT (site CGGAATACTAT) | 0
CGGAATCCATGGACCGGTTTTCCCGGTAATCCGTATTTGTT (site CGGAATACTGA) | 0
CGGAATCCATGGACCGGTTTTCCCGGTAATCCGTATTTGTT (site CGGAATCCTAA) | 1.19
CGGAATCCATGGACCGGTTTTCCCGGTAATCCGTATTTGTT (site CGGAATCCTAC) | 0

Sequence | recombinant UMI read abundance (log10)
CGGAATCCATGGACCGGTTTTCCCGGTAATCCGTATTTGTT (site CGGAATCCTAG) | 0
CGGAATCCATGGACCGGTTTTCCCGGTAATCCGTATTTGTT (site CGGAATCCTAT) | 0
CGGAATCCATGGACCGGTTTTCCCGGTAATCCGTATTTGTT (site CGGAATCCTCA) | 0.00562
CGGAATCCATGGACCGGTTTTCCCGGTAATCCGTATTTGTT (site CGGAATCCTCC) | 0.00652
CGGAATCCATGGACCGGTTTTCCCGGTAATCCGTATTTGTT (site CGGAATCCTGA) | 1.65
CGGAATCCATGGACCGGTTTTCCCGGTAATCCGTATTTGTT (site CGGAATCCTGT) | 0
CGGAATCCATGGACCGGTTTTCCCGGTAATCCGTATTTGTT (site CGGAATCCTTA) | 1.56
CGGAATCCATGGACCGGTTTTCCCGGTAATCCGTATTTGTT (site CGGAATCCTTG) | 0
CGGAATCCATGGACCGGTTTTCCCGGTAATCCGTATTTGTT (site CGGAATGCTAA) | 0.0054
CGGAATCCATGGACCGGTTTTCCCGGTAATCCGTATTTGTT (site CGGAATGCTAC) | 0
CGGAATCCATGGACCGGTTTTCCCGGTAATCCGTATTTGTT (site CGGAATGCTCA) | 0
CGGAATCCATGGACCGGTTTTCCCGGTAATCCGTATTTGTT (site CGGAATTCTAA) | 0
CGGAATCCATGGACCGGTTTTCCCGGTAATCCGTATTTGTT (site CGGAATTCTAG) | 0
CGGAATCCATGGACCGGTTTTCCCGGTAATCCGTATTTGTT (site CGGAATTCTTA) | 0
CGGAATCCATGGACCGGTTTTCCCGGTAATCCGTATTTGTT (site CGGACCCCTAA) | 0.00922
CGGAATCCATGGACCGGTTTTCCCGGTAATCCGTATTTGTT (site CGGACTCCTAA) | 0.00741
CGGAATCCATGGACCGGTTTTCCCGGTAATCCGTATTTGTT (site CGGACTCCTAC) | 0.00516
CGGAATCCATGGACCGGTTTTCCCGGTAATCCGTATTTGTT (site CGGACTCCTCA) | 0.00467
CGGAATCCATGGACCGGTTTTCCCGGTAATCCGTATTTGTT (site CGGACTGCTAA) | 0.0124
